The target of experiment [1] is Macrophage colony-stimulating factor 1 receptor (Homo sapiens) (UniProt P07333). Briefly: Selectivity interaction (Kinase panel (Carna Biosciences)) EUB0001542aTs CSF1R. To be noted: at 1 µM.
In experiment [2] the target is Serine/threonine-protein kinase pim-2 (Homo sapiens, UniProt Q9P1W9). Briefly: Selectivity interaction (SelectScreen profiling (Invitrogen)) EUB0000607a PIM2. To be noted: at 2 µM.
Experiment [3] addresses Mitogen-activated protein kinase 1 (Homo sapiens, UniProt P28482). To be noted: at 10 µM.
Experiment [4] deals with T1, Mitogen-activated protein kinase kinase kinase 5 (Homo sapiens) (UniProt Q99683).
T1 sequence (whole entry): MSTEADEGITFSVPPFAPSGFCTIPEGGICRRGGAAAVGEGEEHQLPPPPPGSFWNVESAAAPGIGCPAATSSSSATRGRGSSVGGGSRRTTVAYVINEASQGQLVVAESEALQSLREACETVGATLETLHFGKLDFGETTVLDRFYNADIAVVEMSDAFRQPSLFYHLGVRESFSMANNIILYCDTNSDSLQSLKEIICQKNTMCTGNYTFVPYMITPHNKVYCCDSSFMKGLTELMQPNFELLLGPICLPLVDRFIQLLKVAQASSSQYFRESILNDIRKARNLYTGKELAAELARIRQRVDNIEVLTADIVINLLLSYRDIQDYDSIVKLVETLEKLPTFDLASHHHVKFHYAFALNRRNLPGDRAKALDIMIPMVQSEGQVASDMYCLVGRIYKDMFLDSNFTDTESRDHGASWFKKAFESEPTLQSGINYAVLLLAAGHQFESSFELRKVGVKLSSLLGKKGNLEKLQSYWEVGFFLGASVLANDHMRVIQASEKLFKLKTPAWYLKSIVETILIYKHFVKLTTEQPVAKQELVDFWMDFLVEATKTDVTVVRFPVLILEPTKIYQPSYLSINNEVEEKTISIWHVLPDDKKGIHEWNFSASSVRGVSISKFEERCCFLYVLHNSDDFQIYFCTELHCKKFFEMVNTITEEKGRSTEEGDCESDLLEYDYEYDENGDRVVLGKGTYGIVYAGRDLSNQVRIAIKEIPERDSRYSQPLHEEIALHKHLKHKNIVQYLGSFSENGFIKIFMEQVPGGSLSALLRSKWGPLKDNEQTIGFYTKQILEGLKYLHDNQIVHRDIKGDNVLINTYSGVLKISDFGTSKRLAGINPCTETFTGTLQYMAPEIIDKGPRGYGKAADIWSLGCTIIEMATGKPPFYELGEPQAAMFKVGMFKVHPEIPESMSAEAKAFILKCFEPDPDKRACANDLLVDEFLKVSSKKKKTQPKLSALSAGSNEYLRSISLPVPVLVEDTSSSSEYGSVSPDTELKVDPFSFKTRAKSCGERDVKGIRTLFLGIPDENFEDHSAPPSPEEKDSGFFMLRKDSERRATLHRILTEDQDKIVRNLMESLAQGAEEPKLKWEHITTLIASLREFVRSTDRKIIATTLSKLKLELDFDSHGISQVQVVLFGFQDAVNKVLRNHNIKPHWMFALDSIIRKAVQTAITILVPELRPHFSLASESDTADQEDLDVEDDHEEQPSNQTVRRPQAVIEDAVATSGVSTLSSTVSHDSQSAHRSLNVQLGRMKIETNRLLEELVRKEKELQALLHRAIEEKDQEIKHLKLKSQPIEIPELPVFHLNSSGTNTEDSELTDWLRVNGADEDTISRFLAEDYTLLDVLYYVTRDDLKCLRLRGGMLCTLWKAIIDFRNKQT
In words: Selectivity interaction (KinomeScan (DiscoverX)) EUB0000666a MAP3K5. To be noted: at 10 µM.

The target in experiment [5] is Polycomb protein SUZ12 (Homo sapiens) (UniProt Q15022). Briefly: Selectivity interaction (Methyltransferase screen (Scintillation proximity assays)) EUB0000255b SUZ12.
For experiment [6], the target named is Putative phosphatidylinositol 4-kinase alpha-like protein P2 (Homo sapiens) (UniProt A4QPH2). Briefly: Selectivity interaction (ActivX KiNativ screen (ex vivo kinase selectivity in human PBMCs)) EUB0001619a PI4KAP2. It is filed as cell-based. To be noted: PBMC, at 1 µM.
For experiment [7], the target named is Cyclin-dependent kinase inhibitor 2A (Homo sapiens, UniProt P42771). In words: Selectivity interaction (Kinase panel (33PanQinase(R) Activity Assay)) EUB0000877a CDKN2A.
Experiment [8] addresses Tyrosine-protein kinase Yes (Homo sapiens) (UniProt P07947). To be noted: at 10 µM.
In experiment [9] the target is Mitogen-activated protein kinase kinase kinase kinase 4 (Homo sapiens, UniProt O95819). In words: Selectivity interaction (KinomeScan (DiscoverX)) EUB0001049a MAP4K4. To be noted: at 1 µM.
Experiment [10] has as its target T2, NUAK family SNF1-like kinase 2 (Homo sapiens) (UniProt Q9H093).
T2 sequence (whole entry): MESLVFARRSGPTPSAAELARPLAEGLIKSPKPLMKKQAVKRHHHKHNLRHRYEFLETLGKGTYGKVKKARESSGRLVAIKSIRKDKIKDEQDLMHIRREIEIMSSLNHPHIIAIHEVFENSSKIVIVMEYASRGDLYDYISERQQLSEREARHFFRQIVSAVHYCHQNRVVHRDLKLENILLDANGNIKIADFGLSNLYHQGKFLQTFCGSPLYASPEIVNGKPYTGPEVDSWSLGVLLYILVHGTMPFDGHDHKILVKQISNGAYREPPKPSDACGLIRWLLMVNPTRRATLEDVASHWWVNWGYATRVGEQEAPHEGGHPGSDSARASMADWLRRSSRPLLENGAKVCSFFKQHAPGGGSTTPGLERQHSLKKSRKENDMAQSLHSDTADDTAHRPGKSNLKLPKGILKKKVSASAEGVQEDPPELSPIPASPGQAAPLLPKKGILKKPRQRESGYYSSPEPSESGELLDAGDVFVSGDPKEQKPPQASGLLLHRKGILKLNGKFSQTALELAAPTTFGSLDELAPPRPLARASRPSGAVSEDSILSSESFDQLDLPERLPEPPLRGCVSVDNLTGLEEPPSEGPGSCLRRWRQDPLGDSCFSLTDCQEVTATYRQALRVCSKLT
In words: Selectivity interaction (KinomeScan (DiscoverX)) EUB0000695a NUAK2. To be noted: at 100 nM.

For experiment [11], the target named is Calcium/calmodulin-dependent protein kinase type 1D (Homo sapiens) (UniProt Q8IU85). In words: Selectivity interaction (KinomeScan (DiscoverX)) EUB0000618a CAMK1D. To be noted: at 10 µM.
In experiment [12] the target is Death-associated protein kinase 3 (Homo sapiens) (UniProt O43293). Briefly: Selectivity interaction (KinomeScan (DiscoverX)) EUB0000618a DAPK3. To be noted: at 10 µM.
For experiment [13], the target named is Protein-tyrosine kinase 2-beta (Homo sapiens) (UniProt Q14289). In words: Selectivity interaction (KinomeScan (DiscoverX)) EUB0000618a PTK2B. To be noted: at 10 µM.
For experiment [14], the target named is Glycogen synthase kinase-3 beta (Homo sapiens, UniProt P49841). Briefly: Selectivity interaction (KinomeScan (DiscoverX)) EUB0000618a GSK3B. To be noted: at 10 µM.
Glycogen synthase kinase-3 beta, sequence (P49841 whole entry, looked up): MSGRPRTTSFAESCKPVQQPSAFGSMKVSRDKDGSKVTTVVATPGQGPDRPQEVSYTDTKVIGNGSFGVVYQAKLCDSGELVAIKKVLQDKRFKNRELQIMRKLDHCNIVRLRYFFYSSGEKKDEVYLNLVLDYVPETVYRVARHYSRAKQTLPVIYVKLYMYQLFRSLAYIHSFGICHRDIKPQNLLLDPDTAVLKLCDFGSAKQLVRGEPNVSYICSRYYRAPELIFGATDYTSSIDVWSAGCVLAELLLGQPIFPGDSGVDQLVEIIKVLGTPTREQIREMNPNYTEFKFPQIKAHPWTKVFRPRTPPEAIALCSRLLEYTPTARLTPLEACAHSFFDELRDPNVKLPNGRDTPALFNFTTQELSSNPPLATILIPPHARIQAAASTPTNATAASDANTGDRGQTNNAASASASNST

Polycomb protein SUZ12 (Homo sapiens), sequence (Q15022 whole entry): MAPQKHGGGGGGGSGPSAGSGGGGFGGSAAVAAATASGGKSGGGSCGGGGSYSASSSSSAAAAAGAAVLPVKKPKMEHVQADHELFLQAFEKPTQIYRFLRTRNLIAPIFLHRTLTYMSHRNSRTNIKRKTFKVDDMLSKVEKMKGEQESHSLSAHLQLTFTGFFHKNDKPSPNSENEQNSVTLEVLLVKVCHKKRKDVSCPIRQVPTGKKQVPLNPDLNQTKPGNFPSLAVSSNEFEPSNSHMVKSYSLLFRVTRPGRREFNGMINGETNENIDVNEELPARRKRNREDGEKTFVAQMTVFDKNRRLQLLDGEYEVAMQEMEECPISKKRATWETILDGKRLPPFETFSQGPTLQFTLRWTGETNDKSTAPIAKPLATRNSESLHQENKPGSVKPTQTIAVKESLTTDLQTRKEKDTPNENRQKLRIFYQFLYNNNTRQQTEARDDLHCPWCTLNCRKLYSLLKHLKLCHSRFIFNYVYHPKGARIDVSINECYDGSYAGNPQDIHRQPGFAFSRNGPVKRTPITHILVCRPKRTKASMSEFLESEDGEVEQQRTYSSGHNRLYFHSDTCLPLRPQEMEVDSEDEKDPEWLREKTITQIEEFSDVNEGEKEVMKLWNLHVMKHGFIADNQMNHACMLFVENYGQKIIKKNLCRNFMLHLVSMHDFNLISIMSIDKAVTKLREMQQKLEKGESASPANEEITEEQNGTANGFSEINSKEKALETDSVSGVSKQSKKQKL
Cyclin-dependent kinase inhibitor 2A, sequence (P42771 whole entry): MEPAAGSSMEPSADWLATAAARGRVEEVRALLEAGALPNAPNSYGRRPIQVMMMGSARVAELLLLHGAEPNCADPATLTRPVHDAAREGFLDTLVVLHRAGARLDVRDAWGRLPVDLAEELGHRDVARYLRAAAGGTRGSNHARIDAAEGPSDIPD
Serine/threonine-protein kinase pim-2, sequence (Q9P1W9 whole entry, looked up): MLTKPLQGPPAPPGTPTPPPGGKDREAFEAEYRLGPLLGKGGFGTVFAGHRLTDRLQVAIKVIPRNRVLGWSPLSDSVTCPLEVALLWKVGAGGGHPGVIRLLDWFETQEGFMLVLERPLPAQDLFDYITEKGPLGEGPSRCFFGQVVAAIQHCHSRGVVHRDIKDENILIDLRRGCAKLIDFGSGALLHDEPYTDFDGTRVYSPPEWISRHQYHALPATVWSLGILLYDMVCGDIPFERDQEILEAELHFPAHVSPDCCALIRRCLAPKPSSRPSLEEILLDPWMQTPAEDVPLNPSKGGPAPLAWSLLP
Tyrosine-protein kinase Yes (Homo sapiens), sequence (P07947 2-543 limits assumed): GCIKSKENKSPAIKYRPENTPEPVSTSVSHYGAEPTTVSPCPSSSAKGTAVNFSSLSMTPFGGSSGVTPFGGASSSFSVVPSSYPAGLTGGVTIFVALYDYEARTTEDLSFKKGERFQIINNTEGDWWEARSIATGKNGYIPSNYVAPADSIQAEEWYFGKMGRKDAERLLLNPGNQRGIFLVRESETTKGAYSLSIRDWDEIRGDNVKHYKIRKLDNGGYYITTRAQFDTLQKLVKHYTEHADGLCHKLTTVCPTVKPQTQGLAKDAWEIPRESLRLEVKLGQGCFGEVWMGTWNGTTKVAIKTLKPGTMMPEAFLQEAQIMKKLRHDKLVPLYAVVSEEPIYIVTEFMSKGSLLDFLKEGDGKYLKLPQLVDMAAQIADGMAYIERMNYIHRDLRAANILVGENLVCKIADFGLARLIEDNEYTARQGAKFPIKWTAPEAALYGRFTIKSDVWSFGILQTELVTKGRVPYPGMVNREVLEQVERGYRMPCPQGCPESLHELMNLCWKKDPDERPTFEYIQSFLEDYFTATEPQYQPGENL
Mitogen-activated protein kinase 1, sequence (P28482 whole entry): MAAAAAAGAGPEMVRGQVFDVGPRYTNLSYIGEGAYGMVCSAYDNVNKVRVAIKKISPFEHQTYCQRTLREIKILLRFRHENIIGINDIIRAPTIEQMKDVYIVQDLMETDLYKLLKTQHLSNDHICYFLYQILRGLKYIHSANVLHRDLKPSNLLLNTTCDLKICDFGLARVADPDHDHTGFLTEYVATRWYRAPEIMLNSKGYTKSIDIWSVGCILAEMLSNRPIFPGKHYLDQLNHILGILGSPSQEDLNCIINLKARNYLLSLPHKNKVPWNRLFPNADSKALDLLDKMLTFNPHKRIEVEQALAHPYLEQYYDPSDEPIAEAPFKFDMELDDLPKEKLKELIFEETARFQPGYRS
Death-associated protein kinase 3 (Homo sapiens), sequence (O43293 whole entry, looked up): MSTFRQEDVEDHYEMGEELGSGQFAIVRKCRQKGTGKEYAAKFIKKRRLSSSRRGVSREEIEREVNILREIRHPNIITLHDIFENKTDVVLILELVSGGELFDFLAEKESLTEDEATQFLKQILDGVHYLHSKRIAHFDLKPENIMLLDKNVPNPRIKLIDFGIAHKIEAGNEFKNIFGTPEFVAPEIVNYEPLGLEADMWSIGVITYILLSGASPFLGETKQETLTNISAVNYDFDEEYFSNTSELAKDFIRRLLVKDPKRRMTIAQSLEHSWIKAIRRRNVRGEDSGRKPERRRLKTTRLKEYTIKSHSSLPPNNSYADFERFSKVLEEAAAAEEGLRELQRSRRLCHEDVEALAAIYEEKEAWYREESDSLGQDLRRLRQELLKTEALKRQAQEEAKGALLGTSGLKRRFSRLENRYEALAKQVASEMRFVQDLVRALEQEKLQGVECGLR
Protein-tyrosine kinase 2-beta (Homo sapiens), sequence (Q14289 whole entry, looked up): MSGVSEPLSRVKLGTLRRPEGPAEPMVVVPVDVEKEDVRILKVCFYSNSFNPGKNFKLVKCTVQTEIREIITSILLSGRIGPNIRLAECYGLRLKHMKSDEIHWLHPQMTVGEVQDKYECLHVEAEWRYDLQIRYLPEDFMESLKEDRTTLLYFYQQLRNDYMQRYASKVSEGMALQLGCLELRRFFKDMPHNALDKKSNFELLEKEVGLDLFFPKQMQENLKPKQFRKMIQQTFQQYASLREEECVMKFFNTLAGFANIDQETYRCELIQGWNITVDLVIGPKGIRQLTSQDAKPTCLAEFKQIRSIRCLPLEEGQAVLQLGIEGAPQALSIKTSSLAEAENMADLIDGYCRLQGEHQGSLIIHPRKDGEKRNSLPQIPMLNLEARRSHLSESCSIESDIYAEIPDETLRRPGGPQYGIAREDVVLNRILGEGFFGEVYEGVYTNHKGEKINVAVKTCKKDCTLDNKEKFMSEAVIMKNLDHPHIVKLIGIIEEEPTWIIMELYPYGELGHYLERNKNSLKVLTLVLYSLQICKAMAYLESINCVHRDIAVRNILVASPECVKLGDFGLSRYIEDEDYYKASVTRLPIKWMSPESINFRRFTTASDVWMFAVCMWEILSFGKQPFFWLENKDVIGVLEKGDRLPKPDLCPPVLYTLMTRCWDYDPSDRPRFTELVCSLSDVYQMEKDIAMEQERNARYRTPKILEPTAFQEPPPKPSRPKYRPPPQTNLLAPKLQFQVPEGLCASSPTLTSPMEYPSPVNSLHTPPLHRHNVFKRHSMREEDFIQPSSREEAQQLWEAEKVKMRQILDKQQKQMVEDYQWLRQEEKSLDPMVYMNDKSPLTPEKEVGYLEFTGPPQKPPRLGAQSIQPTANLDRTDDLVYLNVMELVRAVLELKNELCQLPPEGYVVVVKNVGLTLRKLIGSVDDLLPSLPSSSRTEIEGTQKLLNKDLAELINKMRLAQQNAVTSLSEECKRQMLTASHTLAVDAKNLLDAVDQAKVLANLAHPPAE
Calcium/calmodulin-dependent protein kinase type 1D (Homo sapiens), sequence (Q8IU85 whole entry, looked up): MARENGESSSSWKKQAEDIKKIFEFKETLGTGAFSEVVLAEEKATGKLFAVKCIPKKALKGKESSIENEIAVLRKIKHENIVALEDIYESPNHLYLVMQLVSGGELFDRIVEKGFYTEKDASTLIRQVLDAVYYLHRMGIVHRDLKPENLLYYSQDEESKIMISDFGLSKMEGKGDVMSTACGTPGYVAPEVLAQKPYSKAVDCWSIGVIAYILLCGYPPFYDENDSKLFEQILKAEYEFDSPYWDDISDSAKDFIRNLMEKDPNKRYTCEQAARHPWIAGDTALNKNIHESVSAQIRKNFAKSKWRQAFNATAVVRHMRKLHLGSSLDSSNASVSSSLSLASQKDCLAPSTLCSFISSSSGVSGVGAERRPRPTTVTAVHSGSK
Putative phosphatidylinositol 4-kinase alpha-like protein P2 (Homo sapiens), sequence (A4QPH2 whole entry): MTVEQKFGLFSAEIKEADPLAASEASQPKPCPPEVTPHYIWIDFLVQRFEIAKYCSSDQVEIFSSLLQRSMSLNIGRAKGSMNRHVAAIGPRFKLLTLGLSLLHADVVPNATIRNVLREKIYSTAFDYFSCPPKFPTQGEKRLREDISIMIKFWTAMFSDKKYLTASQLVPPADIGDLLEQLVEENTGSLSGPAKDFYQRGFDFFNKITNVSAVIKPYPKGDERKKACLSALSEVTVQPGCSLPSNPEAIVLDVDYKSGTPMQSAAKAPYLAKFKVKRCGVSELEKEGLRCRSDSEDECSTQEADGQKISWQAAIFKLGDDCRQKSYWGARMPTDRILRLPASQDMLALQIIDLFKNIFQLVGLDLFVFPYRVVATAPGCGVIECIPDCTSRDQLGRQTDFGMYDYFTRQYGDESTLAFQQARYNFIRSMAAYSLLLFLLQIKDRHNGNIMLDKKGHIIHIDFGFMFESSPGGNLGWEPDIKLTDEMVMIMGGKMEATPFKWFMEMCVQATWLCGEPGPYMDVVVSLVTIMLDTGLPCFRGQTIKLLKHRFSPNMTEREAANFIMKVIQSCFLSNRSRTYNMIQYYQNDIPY

`Cn1cc(Nc2nccc(N3CC4CCC(C3)N4C(=O)[C@@H]3CC3(F)F)n2)cn1` returned a % of inhibition in experiment [1] of 59%.
Compound `CNC(=O)Nc1ccc(-c2nc(N3CC4CCC(C3)O4)c3cnn(C4CCC5(CC4)OCCO5)c3n2)cc1` yielded a % of inhibition in [2] of 3%.
Turning to `Cc1cc([C@@H](C)Nc2ccccc2C(=O)O)c2nc(N3CCOCC3)cc(=O)n2c1` [AZD-6482], the % of control in experiment [3] amounted to 100%.
Turning to `O=C(NOC[C@H](O)CO)c1ccc(F)c(F)c1Nc1ccc(I)cc1F`, in experiment [4], the % of control was 91%.
In the case of `COCCN1CCC(c2cc(CN(C)C(=O)c3cccc(Oc4ccccc4)c3)ccn2)CC1`, the % activity was above 95% in experiment [5] (at 1 µM) and above 90% in experiment [5] (at 10 µM).
As for `N#Cc1cccc(-c2c[nH]c3ncnc(N4CCOCC4)c23)c1`, the % of inhibition in experiment [6] amounted to 6%.
For the compound `CCC(=O)N1CC[C@H](Nc2ncnc3c2CN(c2cnc(OC)c(C(F)(F)F)c2)CC3)C1` [LENIOLISIB], in experiment [7], the IC50 (as a rule, the concentration needed to halve the response being measured) is above 10 µM.
In [8], `CCN(CC)CCCCNc1ncc2cc(-c3cc(OC)cc(OC)c3)c(NC(=O)NC(C)(C)C)nc2n1` had a % of control of 100%.
`COc1cc(Nc2nc(C)cc(-c3cnn4nc(OC)ccc34)n2)cc(C(F)(F)F)c1` returned a % of control in experiment [9] of 99%.
In experiment [10], `Cc1cc(F)c(C(=O)Nc2cccc(-c3nncn3C(C)C)n2)cc1-n1cnc(C2CC2)c1` displayed a % of control of 94%.
As for `O[C@H]1CC[C@H](Nc2ncc3nc(Nc4c(F)cc(F)cc4F)n([C@H]4CCOC4)c3n2)CC1`, the % of control in experiment [11] is 93%; in [12], 100%; in [13], 91%; in [14], 95%.

Source of the values: ChEMBL document CHEMBL5465560, “Selectivity Literature for EUbOPEN Chemogenomic Library” (2024).
